# Experimental data: patent publication EP4104902B1, “COMPOUNDS AND M[…] SAME” (priority 2020, dated 2021)
# Tested on: recombinant rabies virus 1088 strain expressing Gaussia Luciferase (GLuc) (1088/GLuc)
# Assay type: cell-based
# Conditions: read-out: Anti-rabies activity
row,SMILES,IC50 [µM]
1,CC(C)CC[C@@H]1[C@@H]2[C@@H]3CN[C@@]1(C(=O)NCCC(N)=O)C[C@@H]3CN2CC(C)C (relative stereo) [IF-300],10 to 30
2,NC(=O)CN1C[C@@H]2C[C@H]3CN[C@]2(C(=O)NCc2ccc(F)cc2)[C@@H]1[C@@H]3Cc1ccccc1 (relative stereo) [IB-92],10 to 30
3,CC(C)CC[C@@H]1[C@@H]2CN[C@@]3(C(=O)NCc4ccc(F)cc4)[C@@H](C2)CN(CCO)[C@@H]13 (relative stereo) [IB-657],10 to 30
4,CC(C)CNC(=O)[C@@]12C[C@@H]3CN(Cc4ccc(F)cc4)[C@@H]([C@@H]3CN1)[C@H]2CCc1ccccc1 (relative stereo) [IF-652],< 5
5,CC(C)CCNC(=O)[C@@]12C[C@@H]3CN(CC(C)C)[C@@H]([C@@H]3CN1)[C@H]2Cc1cccc2ccccc12 (relative stereo) [IF-674],10 to 30
6,O=C(NCc1cccc2ccccc12)C12CC3CN(Cc4ccccc4)C(C3CN1)C2Cc1ccccc1 (stereo not shown) [IF-805],10 to 30
7,O=C(NCCc1ccccc1)[C@@]12C[C@@H]3CN(Cc4ccc(F)cc4)[C@@H]([C@@H]3CN1)[C@H]2Cc1ccc(O)cc1 (relative stereo) [IF-715],< 5
8,CC(C)CNC(=O)C12CC3CN(CCC(=O)O)C(C3CN1)C2Cc1ccc(O)cc1 (stereo not shown) [IF-455],10 to 30
9,NC(=O)CN1C[C@@H]2C[C@H]3CN[C@]2(C(=O)NCc2ccc(F)cc2)[C@@H]1[C@@H]3Cc1cccc2ccccc12 (relative stereo) [IB-96],10 to 30
10,NC(=O)CN1C[C@H]2C[C@]3(C(=O)NCc4cccc5ccccc45)NC[C@H]2[C@H]1[C@H]3CCc1ccccc1 (relative stereo) [IF-85],10 to 30
11,N=C(N)NCCC[C@@H]1[C@@H]2CN[C@@]3(C(=O)NCCc4ccccc4)[C@@H](C2)CN(Cc2ccccc2)[C@@H]13 (relative stereo) [IB-247],10 to 30
12,COc1ccc(CN2CC3CC4(C(=O)NCc5ccccc5)N=CC3C2C4CC(C)C)cc1 (stereo not shown) [IIF-85],5 to 10
13,O=C(NCCc1ccccc1)C12NCC3CC1CN(CC1CCCCC1)C2C3Cc1ccccc1 (stereo not shown) [IB-484],< 5
14,Cc1ccc(CN2CC3CC4CN(C(=O)NCc5ccccc5)C3(C(=O)NCc3ccccc3)C2C4CC(C)C)cc1 (stereo not shown) [IB-889],5 to 10
15,O=C(O)CCC1C2C3CNC1(C(=O)NCc1ccc(O)cc1)CC3CN2CC1CCCCC1 (stereo not shown) [IF-447],10 to 30
16,CC(C)C[C@@H]1[C@@H]2CN[C@@]3(C(=O)NCc4cccc5ccccc45)[C@@H](C2)CN(CC(N)=O)[C@@H]13 (relative stereo) [IB-81],10 to 30
17,CC(C)CCNC(=O)[C@@]12C[C@@H]3CN(CCc4ccccc4)[C@@H]([C@@H]3CN1)[C@H]2CC(C)C (relative stereo) [IF-657],< 5
18,N=C(N)NCCC[C@@H]1[C@@H]2[C@@H]3CN[C@@]1(C(=O)NCc1ccccc1)C[C@@H]3CN2Cc1cccc2ccccc12 (relative stereo) [IF-236],10 to 30
19,CC(C)CCN1C[C@H]2C[C@]3(C(=O)NCc4cccc5ccccc45)NC[C@H]2[C@H]1[C@H]3Cc1ccc(O)cc1 (relative stereo) [IF-706],< 5
20,O=C(NCc1ccccc1)[C@]12NC[C@@H]3C[C@H]1CN(Cc1ccc(F)cc1)[C@H]2[C@@H]3Cc1ccccc1 (relative stereo) [IB-772],< 5
21,NC(=O)CCNC(=O)C12NCC3CC1CN(Cc1ccccc1)C2C3Cc1cccc2ccccc12 (stereo not shown) [IB-813],< 5

row,SMILES,IC50 [µM]
1,N=C(N)NCCCNC(=O)[C@]12NC[C@@H]3C[C@H]1CN(CCc1ccccc1)[C@H]2[C@@H]3Cc1ccccc1 (relative stereo) [IB-344],10 to 30
2,CC(C)CC[C@@H]1[C@@H]2CN[C@@]3(C(=O)NCCC(N)=O)[C@@H](C2)CN(Cc2cccc4ccccc24)[C@@H]13 (relative stereo) [IB-349],< 5
3,CC(C)C[C@@H]1[C@@H]2CN[C@@]3(C(=O)NCc4ccccc4)[C@@H](C2)CN(Cc2ccc(F)cc2)[C@@H]13 (relative stereo) [IB-773],< 5
4,CC(C)CC[C@@H]1[C@@H]2CN[C@@]3(C(=O)NCCC(N)=O)[C@@H](C2)CN(CC2CCCCC2)[C@@H]13 (relative stereo) [IB-357],10 to 30
5,O=C(NCc1ccccc1)[C@]12NC[C@@H]3C[C@H]1CN(CCO)[C@H]2[C@@H]3Cc1ccccc1 (relative stereo) [IB-619],10 to 30
6,CC(C)CN1C[C@H]2C[C@]3(C(=O)NCc4ccccc4)NC[C@H]2[C@H]1[C@H]3CC1CCCCC1 (relative stereo) [IF-38],10 to 30
7,CC(C)CNC(=O)[C@]12NC[C@@H]3C[C@H]1CN(Cc1ccc(F)cc1)[C@H]2[C@@H]3CCc1ccccc1 (relative stereo) [IB-774],< 5
8,NC(=O)CC1C2C3CNC1(C(=O)NCCO)CC3CN2Cc1cccc2ccccc12 (stereo not shown) [IF-230],10 to 30
9,CC(C)CCN1C[C@H]2C[C@]3(C(=O)NCC(C)C)NC[C@H]2[C@H]1[C@H]3Cc1cccc2ccccc12 (relative stereo) [IF-734],< 5
10,CC(C)CC1C2CNC3(C(=O)NCc4ccccc4)C(C2)CN(Cc2ccc(N(C)C)cc2)C13 (stereo not shown) [IB-873],5 to 10
11,CC(C)CC1C2C3C=NC1(C(=O)NCc1ccccc1)CC3CN2Cc1ccc(OC(F)(F)F)cc1 (stereo not shown) [IIF-96],5 to 10
12,CC(C)CC[C@@H]1[C@@H]2[C@@H]3CN[C@@]1(C(=O)NCCO)C[C@@H]3CN2Cc1cccc2ccccc12 (relative stereo) [IF-613],10 to 30
13,CC(C)CN1C[C@@H]2C[C@H]3CN[C@]2(C(=O)NCCc2ccccc2)[C@@H]1[C@@H]3Cc1ccccc1 (relative stereo) [IB-12],10 to 30
14,O=C(O)CCNC(=O)C12NCC3CC1CN(Cc1ccc(O)cc1)C2C3Cc1cccc2ccccc12 (stereo not shown) [IB-410],10 to 30
15,CC(C)C[C@@H]1[C@@H]2[C@@H]3CN[C@@]1(C(=O)NCc1ccc(O)cc1)C[C@@H]3CN2Cc1ccc(F)cc1 (relative stereo) [IF-482],10 to 30
16,CC(C)C[C@@H]1[C@@H]2[C@@H]3CN[C@@]1(C(=O)NCCc1ccccc1)C[C@@H]3CN2CC1CCCCC1 (relative stereo) [IF-711],10 to 30
17,O=C(NCc1ccccc1)[C@@]12C[C@@H]3CN(Cc4cccc5ccccc45)[C@@H]([C@@H]3CN1)[C@H]2Cc1ccc(O)cc1 (relative stereo) [IF-505],< 5
18,CC(C)CCNC(=O)C12CC3CN(CCCNC(=N)N)C(C3CN1)C2Cc1cccc2ccccc12 (stereo not shown) [IF-356],10 to 30
19,CC(C)CCN1C[C@H]2C[C@]3(C(=O)NCCO)NC[C@H]2[C@H]1[C@H]3Cc1cccc2ccccc12 (relative stereo) [IF-611],10 to 30
20,O=C(NCCO)[C@]12NC[C@@H]3C[C@H]1CN(Cc1ccccc1)[C@H]2[C@@H]3CCc1ccccc1 (relative stereo) [IB-681],10 to 30
21,CCCCCCNC(=O)C12NCC3CC1CN(CC(N)=O)C2C3Cc1cccc2ccccc12 (stereo not shown) [IB-110],< 5

row,SMILES,IC50 [µM]
1,NC(=O)CN1C[C@@H]2C[C@H]3CN[C@]2(C(=O)NCc2cccc4ccccc24)[C@@H]1[C@@H]3Cc1cccc2ccccc12 (relative stereo) [IB-90],< 5
2,COc1ccc(CNC(=O)[C@@]23C[C@@H]4CN(CCC(C)C)[C@@H]([C@@H]4C=N2)[C@H]3Cc2ccccc2)cc1 (relative stereo) [IIF-329],< 5
3,CC(C)CC[C@@H]1[C@@H]2[C@@H]3CN[C@@]1(C(=O)NCc1ccccc1)C[C@@H]3CN2Cc1ccc(F)cc1 (relative stereo) [IF-743],10 to 30
4,CC(C)CC[C@@H]1[C@@H]2CN[C@@]3(C(=O)NCc4ccccc4)[C@@H](C2)CN(Cc2ccc(O)cc2)[C@@H]13 (relative stereo) [IB-786],10 to 30
5,O=C(NCc1ccc(O)cc1)[C@@]12C[C@@H]3CN(Cc4cccc5ccccc45)[C@@H]([C@@H]3CN1)[C@H]2Cc1ccccc1 (relative stereo) [IF-472],< 5
6,CC(C)CNC(=O)[C@@]12C[C@@H]3CN(CC(C)C)[C@@H]([C@@H]3CN1)[C@H]2Cc1cccc2ccccc12 (relative stereo) [IF-680],10 to 30
7,O=C(NCc1ccccc1)[C@]12NC[C@@H]3C[C@H]1CN(Cc1ccccc1)[C@H]2[C@@H]3Cc1cccc2ccccc12 (relative stereo) [IB-777],< 5
8,O=C(NCCc1ccccc1)[C@@]12C[C@@H]3CN(Cc4ccccc4)[C@@H]([C@@H]3CN1)[C@H]2Cc1ccc(O)cc1 (relative stereo) [IF-722],< 5
9,CCCCCCNC(=O)C12NCC3CC1CN(CCO)C2C3Cc1ccccc1 (stereo not shown) [IB-476],< 5
10,CC(C)CC1C2CNC3(C(=O)NCCc4ccccc4)C(C2)CN(CC(N)=O)C13 (stereo not shown) [IB-86],10 to 30
11,CN1CC2CC3C=NC2(C(=O)NCCc2cccc4ncccc24)C1C3Cc1ccccc1 (stereo not shown) [IIB-330],< 5
12,Cc1ccc(CN2CC3CC4CN(CC(C)C)C3(C(=O)NCc3ccccc3)C2C4CC(C)C)cc1 (stereo not shown) [IB-881],< 5
13,CC(C)CNC(=O)[C@@]12C[C@@H]3CN(CC4CCCCC4)[C@@H]([C@@H]3CN1)[C@H]2Cc1cccc2ccccc12 (relative stereo) [IF-646],< 5
14,O=C(NCc1ccc(F)cc1)[C@]12NC[C@@H]3C[C@H]1CN(Cc1ccccc1)[C@H]2[C@@H]3CCc1ccccc1 (relative stereo) [IB-568],10 to 30
15,O=C(O)CCC1C2C3CNC1(C(=O)NCc1cccc4ccccc14)CC3CN2CC1CCCCC1 (stereo not shown) [IF-419],10 to 30
16,CC(C)CC[C@@H]1[C@@H]2CN[C@@]3(C(=O)NCC(C)C)[C@@H](C2)CN(CCO)[C@@H]13 (relative stereo) [IB-372],10 to 30
17,CC(C)CN1C[C@H]2C[C@]3(C(=O)NCc4ccc(O)cc4)NC[C@H]2[C@H]1[C@H]3Cc1cccc2ccccc12 (relative stereo) [IF-500],10 to 30
18,CC(C)C[C@@H]1[C@@H]2CN[C@@]3(C(=O)NCCO)[C@@H](C2)CN(Cc2ccc(F)cc2)[C@@H]13 (relative stereo) [IB-650],10 to 30
19,CC(C)CCN1C[C@@H]2C[C@H]3CN[C@]2(C(=O)NCCO)[C@@H]1[C@@H]3CCc1ccccc1 (relative stereo) [IB-658],10 to 30
20,CC(C)CC1C2C=NC3(C(=O)NCc4ccccc4)C(C2)CN(Cc2cccc(Cl)c2)C13 (stereo not shown) [IIB-84],< 5
21,CC(C)CNC(=O)[C@@]12C[C@@H]3CN(CCc4ccccc4)[C@@H]([C@@H]3CN1)[C@H]2CC(C)C (relative stereo) [IF-738],10 to 30

# Same assay, conditions: read-out: IC50
row,SMILES,IC50 [µM]
1,CC(C)CN1C[C@@H]2C[C@H]3CN[C@]2(C(=O)NCCc2ccccc2)[C@@H]1[C@@H]3Cc1ccccc1 (relative stereo) [IB-12],15.5
